The values below come from US7659284B2, “Thiazolopyridine kinase inhibitors” (Janssen Pharmaceutica NV, priority 2004, dated 2010).

One experiment deals with T1, c-Src kinase (human) (Homo sapiens, UniProt P12931).
T1 construct: purchased Upstate Biotechnology, Lake Placid, N.Y
Briefly: c-Src Kinase Assay. It counts as biochemical. As to conditions: for IC50: human c-Src, 5 μM ATP. The protocol:
[…] a 10× kinase buffer (80 mM MOPS at pH 7.0, 2 mM EDTA and 100 mM Magnesium Chloride), ATP (5 μM final from a 10 mM stock), a Cdc2 peptide KVEKIGEGTYGVVYK (100 μM final from a 2.5 mM stock), γ-^33P ATP (10 μCi/μL stock) and water (20 μL/well) was added to each well of a Streptavidin Flashplate.
Test compound in 100% DMSO (0.5 μL) was added to the appropriate wells. Diluted c-Src kinase (human) (Upstate Biotechnology, Lake Placid, N.Y.) (diluted in a buffer consisting of 20 mM MOPS at pH 7.0, 1 mM EDTA, β-mercaptoethanol (0.1%), Brij-35 (0.01%), glycerol (5%), and 1 mg/mL bovine serum albumin) (2.5 μL) was added to the wells to initiate the reactions. The reaction plates were incubated at 30° C. for 40 min. The reaction was terminated by the addition of a 3% phosphoric acid solution (5 μL). The reaction product (10 μL) was spotted onto a P30 filtermat and washed for 5 minutes in phosphoric acid (75 mM). The wash sequence was repeated two more times, followed with one final wash in methanol. The plates were then dried, sealed and read on the TopCount scintillation counter after adding 30 μL scintillation fluid.
The percent inhibitions and IC50 values were derived according to the procedure described in Example 52. For those compounds without an IC50, the percent inhibition results are shown at a test concentration of ^(1)1 μM or ^(2)1.6 μM.

A further experiment concerns the target T2, EGFR (Homo sapiens, UniProt P00533).
T2 construct: started at nucleotide 2189 (corresponding to amino acid 667) and ended at the termination codon; made in house; host or cells: Sf9 insect cells (baculovirus)
Briefly: EGFR Kinase Assay (GST-EGFR, 33P-ATP, Streptavidin Flashplate). The format is biochemical. The settings on record: for IC50: GST-EGFR intracellular portion, 5 μM ATP; for inhibition at 2 µM: test concentration of 2 μM, read-out: EGFR percent inhibition. An excerpt: The EGFR kinase used was a fusion of Glutathione-S-Transferase (GST) and a PCR amplified intracellular portion of EGFR (NM_005228). The intracellular portion of EGFR started at nucleotide 2189 (corresponding to amino acid 667) and ended at the termination codon. The portion was PCR amplified with primers that added the lambda attB sequences to each end, recombined into an entry vector, then into a GST destination vector (as described in Gateway Technologies Manual by Invitrogen Corporation, Carlsbad, Calif.).
The destination vector was recombined in the DH10BAC strain of bacteria to produce a bacmid. The bacmid was transfected into Sf 9 cells and the supernatant containing the baculovirus was collected. The GSTEGFR protein was purified using large cultures of Sf 9 cells infected with stock virus. After an appropriate period of time, the cells were collected and lysed. The GSTEGFR was then purified from the lysate on Glutathione-Sepharose columns (as described by Amersham Biosciences, Buckinghamshire, United Kingdom).
The EGFR substrate was prepared by biotinylating polyGluTyr (128 mg) (Sigma, St. Louis, Mo.) in a 1×PBS buffer incubated together with a 12-fold molar excess of Sulfo-NHS-LC-Biotin on ice for at least 2 hrs. The free biotin was separated from the biotinylated polyGluTyr on a gel filtration column.
A mixture of a 10× kinase buffer (500 mM Tris at pH 8.0, 100 mM Magnesium Chloride and 1 mM Sodium Vanadate), DTT (1 mM final from 500 mM stock), ATP (5 μM final from 10 mM stock), biotinylated polyGluTyr (10 μg/μL stock), γ-^33P ATP (10 μCi/μL stock) and water was added to each well (90 μL/well) of a Streptavidin Flashplate (Perkin Elmer, Wellesley, Mass.).
Test compound in 100% DMSO (2 μL) was added to the appropriate wells. Diluted GSTEGFR (1:300 dilution in 50 mM Tris at pH 8.0 and 0.1% bovine serum albumin) (10 μL) was added to the wells to initiate the reactions.
The plates were incubated at 30° C. for 1 hr with shaking. The reacted contents were removed and the plates were sequentially washed three times with a 1×PBS stop buffer (300 μL without Magnesium and Calcium) and 100 mM EDTA. After the final wash, the same stop buffer (200 μL) was added to the wells. The plates were then sealed and read on the TopCount scintillation counter.
Test compounds were assayed in triplicate at 16 concentrations at half-log dilutions starting at 200 uM. A maximum and minimum signal for the assay was determined on each plate. The percent inhibition of a test compound was calculated accord to the formula
For a series of test concentrations, the IC50 was derived by graphing percent inhibition against the log of the concentrations tested for a given compound. For those compounds without an IC50, the percent inhibition results are shown at a test concentration of 2 μM.

Where only a bound is given, the exact number is not on record here.

T1 sequence (P12931 whole entry): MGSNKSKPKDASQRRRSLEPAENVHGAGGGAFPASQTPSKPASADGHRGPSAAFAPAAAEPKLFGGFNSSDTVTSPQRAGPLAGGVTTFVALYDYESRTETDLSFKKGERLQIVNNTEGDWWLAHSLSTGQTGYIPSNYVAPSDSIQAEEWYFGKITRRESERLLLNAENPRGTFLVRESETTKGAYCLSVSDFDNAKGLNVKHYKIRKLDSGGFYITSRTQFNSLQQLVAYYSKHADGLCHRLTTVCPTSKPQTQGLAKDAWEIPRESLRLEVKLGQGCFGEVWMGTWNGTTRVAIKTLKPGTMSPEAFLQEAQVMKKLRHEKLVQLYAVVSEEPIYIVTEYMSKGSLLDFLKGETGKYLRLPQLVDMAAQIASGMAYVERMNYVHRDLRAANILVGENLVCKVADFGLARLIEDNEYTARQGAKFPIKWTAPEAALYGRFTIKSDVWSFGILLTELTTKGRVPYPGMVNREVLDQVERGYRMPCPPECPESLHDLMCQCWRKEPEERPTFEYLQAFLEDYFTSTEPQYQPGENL
T2 sequence (P00533 667-1210 limits assumed): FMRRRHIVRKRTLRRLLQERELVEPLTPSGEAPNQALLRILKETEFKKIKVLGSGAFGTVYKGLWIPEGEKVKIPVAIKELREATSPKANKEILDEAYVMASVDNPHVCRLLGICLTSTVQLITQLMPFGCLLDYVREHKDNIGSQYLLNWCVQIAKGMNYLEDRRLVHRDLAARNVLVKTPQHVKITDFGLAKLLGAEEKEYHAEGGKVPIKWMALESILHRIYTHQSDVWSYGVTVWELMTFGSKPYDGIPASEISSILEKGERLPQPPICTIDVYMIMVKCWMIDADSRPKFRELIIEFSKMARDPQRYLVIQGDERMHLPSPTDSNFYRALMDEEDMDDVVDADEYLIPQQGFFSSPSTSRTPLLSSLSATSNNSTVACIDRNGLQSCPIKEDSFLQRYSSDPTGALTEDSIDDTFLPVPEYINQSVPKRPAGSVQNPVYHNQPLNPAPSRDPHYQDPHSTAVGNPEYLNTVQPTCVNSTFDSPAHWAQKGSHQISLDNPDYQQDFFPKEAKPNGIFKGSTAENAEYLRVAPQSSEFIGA

The term IC50 denotes the concentration that gives 50% inhibition. A lower IC50 goes with inhibition by little substance. `CN1CCCC(COc2ccc(Nc3nc4ncc(C#N)c(Sc5ccc(F)cc5Cl)c4s3)cc2)C1` (stereo not shown) [Cpd 39, 7-(2-chloro-4-fluoro-phenylsulfanyl)-2-[4-(1-methyl-piperidin-3-ylmethoxy)-phenylamino]-thiazolo[4,5-b]pyridine-6-carbonitrile]: the IC50 on c-Src kinase (human) was greater than 100000 nM; against EGFR, 3260 nM.

Usually inhibition stands for the change of the read-out against control, counted positive when it falls. In turn, `N#Cc1cnc2nc(Nc3ccc(CN4CCCCC4)cc3)sc2c1Nc1c(Cl)ccc2c1OCO2` [Cpd 41, 7-(5-chloro-benzo[1,3]dioxol-4-ylamino)-2-(4-piperidin-1-ylmethyl-phenylamino)-thiazolo[4,5-b]pyridine-6-carbonitrile] returned an IC50 against c-Src kinase (human) of 79 nM. Moreover, the inhibition at 2 µM on EGFR is 44%.

Take `CN1CCN(Cc2ccc(Nc3nc4ncc(C#N)c(Nc5c(Cl)ccc6c5OCO6)c4s3)cc2)CC1` [Cpd 46, 7-(5-chloro-benzo[1,3]dioxol-4-ylamino)-2-[4-(4-methyl-piperazin-1-ylmethyl)-phenylamino]-thiazolo[4,5-b]pyridine-6-carbonitrile]: half-maximal inhibition against c-Src kinase (human) (IC50) was put at 389 nM.

On c-Src kinase (human), `COc1cc(Nc2nc3ncc(C#N)c(Nc4c(Cl)ccc5c4OCO5)c3s2)ccc1OCCN1CCOCC1` [Cpd 42, 7-(5-chloro-benzo[1,3]dioxol-4-ylamino)-2-[3-methoxy-4-(2-morpholin-4-yl-ethoxy)-phenylamino]-thiazolo[4,5-b]pyridine-6-carbonitrile] had an IC50 of 1380 nM. In addition, at EGFR, the inhibition at 2 µM turned out to be 18%. As to `N#Cc1cnc2nc(Nc3ccc(CNC[C@H]4CCCO4)cc3)sc2c1Nc1c(Cl)ccc2c1OCO2` [Cpd 44, 7-(5-chloro-benzo[1,3]dioxol-4-ylamino)-2-[4-({[(2R)-tetrahydro-furan-2-ylmethyl]-amino}-methyl)-phenylamino]-thiazolo[4,5-b]pyridine-6-carbonitrile], it took 126 nM to reach half-maximal inhibition on c-Src kinase (human) (IC50). In addition, the inhibition at 2 µM at EGFR is 47%. The molecule `N#Cc1cnc2nc(Nc3ccc(CN4CCCC4)cc3)sc2c1Nc1c(Cl)ccc2c1OCO2` [Cpd 45, 7-(5-chloro-benzo[1,3]dioxol-4-ylamino)-2-(4-pyrrolidin-1-ylmethyl-phenylamino)-thiazolo[4,5-b]pyridine-6-carbonitrile] returned an IC50 against c-Src kinase (human) of 145 nM. This lies in the sub-micromolar range. As for `COc1ccc(Cl)c(Nc2c(C#N)cnc3nc(Nc4ccc(OCC5CCCN(C)C5)cc4)sc23)c1` (stereo not shown) [Cpd 35, 7-(2-chloro-5-methoxy-phenylamino)-2-[4-(1-methyl-piperidin-3-ylmethoxy)-phenylamino]-thiazolo[4,5-b]pyridine-6-carbonitrile], the inhibition at 1.6 µM at c-Src kinase (human) (test concentration (2) 1.6 μM, read-out: c-SRC percent inhibition) worked out at 11%. The molecule further gave an IC50 against EGFR of 461 nM.

`N#Cc1cnc2nc(Nc3ccc(Cl)nc3)sc2c1Nc1ccc(F)c(Cl)c1` [Cpd 28, 7-(3-chloro-4-fluoro-phenylamino)-2-(6-chloro-pyridin-3-ylamino)-thiazolo[4,5-b]pyridine-6-carbonitrile] showed an IC50 on EGFR of 327 nM. That is a sub-micromolar value. On the same count and under the same terms, the figure for `CN(C)Cc1ccc(Nc2nc3ncc(C#N)c(Nc4ccc(F)c(Cl)c4)c3s2)cc1` [Cpd 3, 7-(3-chloro-4-fluoro-phenylamino)-2-(4-dimethylaminomethyl-phenylamino)-thiazolo[4,5-b]pyridine-6-carbonitrile] is 43.7 nM. In the case of `N#Cc1cnc2nc(Nc3ccc(CN4CCOCC4)cc3)sc2c1Nc1ccc(Cl)cc1Cl` [Cpd 34, 7-(2,4-dichloro-phenylamino)-2-(4-morpholin-4-ylmethyl-phenylamino)-thiazolo[4,5-b]pyridine-6-carbonitrile], the IC50 against EGFR amounted to 1450 nM.

The molecule `COc1ccc(Nc2nc3ncc(C#N)c(Nc4ccc(F)c(Cl)c4)c3s2)cn1` [Cpd 26, 7-(3-chloro-4-fluoro-phenylamino)-2-(6-methoxy-pyridin-3-ylamino)-thiazolo[4,5-b]pyridine-6-carbonitrile] yielded an IC50 against EGFR of 158 nM. This IC50 is about 9.2-fold lower than that of the molecule before. In turn, `CCc1nccn1Cc1ccc(Nc2nc3ncc(C#N)c(Nc4ccc(F)c(Cl)c4)c3s2)cc1` [Cpd 1, 7-(3-chloro-4-fluoro-phenylamino)-2-[4-(2-ethyl-imidazol-1-ylmethyl)-phenylamino]-thiazolo[4,5-b]pyridine-6-carbonitrile] registered an IC50 against EGFR of 22.6 nM. On the same count and under the same terms, in the case of `CN(Cc1ccc(Nc2nc3ncc(C#N)c(Nc4ccc(F)c(Cl)c4)c3s2)cc1)C[C@@H]1CCCO1` [Cpd 15, 7-(3-chloro-4-fluoro-phenylamino)-2-[(4-{methyl-[(2S)-tetrahydro-furan-2-ylmethyl]-amino}-methyl)-phenylamino]-thiazolo[4,5-b]pyridine-6-carbonitrile] it was 76.1 nM; in that of `N#Cc1cnc2nc(NCCCN3CCOCC3)sc2c1Nc1ccc(F)c(Cl)c1` [Cpd 8, 7-(3-chloro-4-fluoro-phenylamino)-2-(3-morpholin-4-yl-propylamino)-thiazolo[4,5-b]pyridine-6-carbonitrile], 2630 nM.

Molecule `CN(Cc1ccc(Nc2nc3ncc(C#N)c(Nc4ccc(F)c(Cl)c4)c3s2)cc1)C1CCOCC1` [Cpd 16, 7-(3-chloro-4-fluoro-phenylamino)-2-(4-{[methyl-(tetrahydro-pyran-4-yl)-amino]-methyl}-phenylamino)-thiazolo[4,5-b]pyridine-6-carbonitrile] registered an IC50 against EGFR of 76.4 nM.

On EGFR, `N#Cc1cnc2nc(Nc3ccc(S(=O)(=O)NCCN4CCOCC4)cc3)sc2c1Nc1ccc(F)c(Cl)c1` [Cpd 7, 4-[7-(3-chloro-4-fluoro-phenylamino)-6-cyano-thiazolo[4,5-b]pyridin-2-ylamino]-N-(2-morpholin-4-yl-ethyl)-benzenesulfonamide] gave an IC50 of 28.5 nM.

`N#Cc1cnc2nc(Nc3ccc(NCCCN4CCOCC4)nc3)sc2c1Nc1ccc(F)c(Cl)c1` [Cpd 29, 7-(3-chloro-4-fluoro-phenylamino)-2-[6-(3-morpholin-4-yl-propylamino)-pyridin-3-ylamino]-thiazolo[4,5-b]pyridine-6-carbonitrile]: at EGFR, the midpoint of inhibition, the IC50, lay at 69.6 nM. Same read-out and setting: the figure for `CN(Cc1ccc(Nc2nc3ncc(C#N)c(Nc4ccc(F)c(Cl)c4)c3s2)cc1)C[C@H]1CCCO1` [Cpd 14, 7-(3-chloro-4-fluoro-phenylamino)-2-[(4-{methyl-[(2R)-tetrahydro-furan-2-ylmethyl]-amino}-methyl)-phenylamino]-thiazolo[4,5-b]pyridine-6-carbonitrile] is 29.3 nM; for `N#Cc1cnc2nc(NCCN3CCOCC3)sc2c1Nc1cccc(Cl)c1` [Cpd 12, 7-(3-chloro-phenylamino)-2-(2-morpholin-4-yl-ethylamino)-thiazolo[4,5-b]pyridine-6-carbonitrile] it is 15800 nM. Still for that read-out and setting: the figure for `N#Cc1cnc2nc(Nc3ccc(NCCN)nc3)sc2c1Nc1ccc(F)c(Cl)c1` [Cpd 30, 2-[6-(2-amino-ethylamino)-pyridin-3-ylamino]-7-(3-chloro-4-fluoro-phenylamino)-thiazolo[4,5-b]pyridine-6-carbonitrile] is 67.7 nM.
